For the test, the system named is IL-6 secretion by astrocytes. Nature of the test: IL-6 release caused by NMO-IgG in astrocytes (ELISA). In kind it is cell-based, rat. The settings on record: Rattus norvegicus, Astrocyte, 24 h, NMO-IgG 250 μg/mL, read-out: IL-6 inhibition rate, Mean. Here is the method: The compound was dissolved in DMSO to prepare a compound stock solution. The compound stock solution was then serially diluted in a gradient using DMSO to prepare a series of 1000× test compound solutions. These 1000× test compound solutions were further diluted at a ratio of 1:100 with cell culture medium to prepare a series of 10× test compound solutions. Finally, according to the experimental well plate loading design, a corresponding volume of 10× solution was added to each well, with two duplicate wells for each drug concentration. In the experiment, the test solution (i.e., 1× solution) had varying final concentrations of compound I, specifically 20, 2.222, 0.247, and 0.027 μM; the concentration of Meprednisone compound (i.e., 1× solution) was 30 μM; the concentration of BAY 11-7082 (i.e., 1× solution) was 5 μM; the final DMSO concentration in each well was 0.1%. DMSO without compound was added to blank control wells, with a final concentration of 0.1%.
1) Extraction and separation of primary astrocytes: A mixed glial cell culture medium was prepared from the cerebral cortex of 1-day-old newborn rats. After euthanizing the newborn rats, they were immersed in alcohol. Their skin was cut, the brains were removed, and the cerebral cortex was isolated. The tissues were then ground to remove the connective tissue, and the mixed glial cells were sieved through a 70 µm cell strainer. These cells were then seeded into a cell culture plate coated with poly-L-lysine. The culture medium was DMEM, containing 10% heat-inactivated fetal bovine serum, 100 U/mL penicillin, and […]. After about 12 days of in vitro culture, the cells reached confluence. Microglia, endothelial cells, and oligodendrocytes were removed from the mixed glial cells by vibratory shaking. […] 2) Culture of astrocytes: The isolated astrocytes were cultured in a 37° C., 5% CO2 incubator. The culture medium was changed every 3 to 4 days. The astrocytes could also be digested using trypsin (0.25%) and then frozen in liquid nitrogen for future use.
Human NMO-IgG was isolated from a sterile-filtered serum pool (AQP4-IgG-positive NMOSD) using a HiTrap Protein G-HP column (GE Healthcare). The serum samples were diluted at a ratio of 1:1 with binding buffer, and after packing the purification column with binding buffer, the serum sample was added. The column was subsequently washed with binding buffer again and the antibodies were eluted according to the instructions. Finally, the antibodies were concentrated on an Amicon Ultra-4 centrifugal filter (millipore) with a 10,000 MW cutoff. The concentrated immunoglobulin was filtered through a 0.22 µm filter. The protein concentration of the concentrate was determined using the BCA method and stored at −80° C. The total IgG extracted from the serum of NMOSD patients was NMO-IgG (containing AQP4-IgG), and the cells were stimulated at a protein concentration of 250 μg/mL during the experiment.
Astrocytes were cultured or revived until day 2 and then seeded into a 24-well plate at a density of 1.5×10^5 cells per well. The test compounds, including compound I, Meprednisone, and BAY11-7082, were pre-incubated with the cells for 30 minutes at the concentrations previously described. Subsequently, in each group, the cells continued to be stimulated with NMO-IgG at a final working concentration of 250 μg/mL for 24 hours to induce astrocyte damage. Normal human Control-IgG (CON-IgG) stimulation at a final working concentration of 250 μg/mL was used as a negative control.
After 24 hours of NMO-IgG stimulation of cells, the supernatant was collected. IL-6 levels were detected using an enzyme-linked immunosorbent assay (ELISA) following the instructions of the IL-6 ELISA kit (R&D Systems, USA, #RD6000B). The absorbance (OD values) of the samples in each group was measured, and the concentration of IL-6 in each experimental group was calculated through standard curve fitting. […]
For orientation: An ELISA detects its analyte on a solid surface through an enzyme-linked reagent.

As usually defined, the inhibition is the change of the read-out against control, counted positive when it falls.

On to `CN(c1ncnc2[nH]ccc12)[C@@H]1CCc2cc(C#N)nn2C1` [Compound I], for which, where the note is “0.027 μM”, the inhibition at 0.027 µM was 30.4%. The inhibition at 0.247 µM (0.247 μM) was 54%. The inhibition at 2.222 µM (2.222 μM) amounted to 94.3%. Also, for the setting “20 μM”, the inhibition at 20 µM was roughly 98.8%.

The values are drawn from patent publication US20240238299A1, “USE OF PYRROLOPYRIMIDINE COMPOUND” (GUANGZHOU JOYO PHARMATECH CO., LTD, priority 2021, published 2024).
